Measured values reported in patent US5443967A, “DNA encoding the cancer associated SCM recognition factor” (priority 1993, dated 1995).
Entries after “also recorded” stand apart in the source; their conditions may differ. *1 amine or outer side, *2 acyl side, *3 side chain or, on linkers, in order; H or OH if unused. Where a SMILES comes first, the peptide text is derived from it. Bridges are numbered along the chain shown (N, C = ends). Roman numbers before positions name the chains, in order. Where no end group is shown, it is not given here. [ ]: non-standard residue; d: D form. Actinocin(9to1) = Cc1c2oc3c(C)ccc(C(=O)[*:1])c3nc-2c(C(=O)[*:2])c(N)c1=O; NMeV = CN[C@H](C(=O)O)C(C)C; Sar = CNCC(=O)O

How the values were obtained:
[1] = tested on: SCM-responding lymphocytes from healthy donors; experiment: Modification/induction of SCM response of lymphocytes from healthy donors by preincubation with SCM factor; format: cell-based, human; conditions: 10 μg/5×10^6 cells during incubation with synthetic SCM factor
Protocol: 10, 1986, and entitled "Automated Collection of Buoyant Density Specific Cells from Density Gradients." Aliquots of these cells were incubated in 3 ml of the following: (a) cell-free blood plasma from cancer patients; (b) plasma from cancer patients ultrafiltered for 12 hours through an Amicon™ UM2 filter with a molecular weight cutoff of 1000 daltons; (c) plasma from cancer patients ultrafiltered for 12 hours through an Amicon™ UM5 filter with a nominal molecular weight cutoff of 500 daltons; (d) general cancer-associated SCM factor as purified through the desalting or Sephadex G-10 column stage; (e) the factor as purified through the Sephadex G-50 column stage; (f) the factor as purified through the DEAE-cellulose column step; (g) the factor as finally purified through the RP-HPLC step; and (h) plasma from healthy donors ultrafiltered through an Amicon™ UM2 filter with a nominal molecular weight cutoff of 1000 daltons. […]
Before being contacted with either a mitogen or with the SCM factor for determination of the RRSCM the incubated cells were thoroughly washed. The presence or absence of modification was determined by the ratio of the polarization value of the lymphocyte suspension after a short contact period with substrates containing the SCM factor over the polarization value of the lymphocyte suspension after a short contact period with phytohaemagglutinin (PHA). […]

T1080 fibrosarcoma cells = experiment: SCM factor in cultured cancer cells by noncompetitive ELISA; format: cell-based, human
Protocol: (§1) The SCM factors secreted from human cancer cells in culture whose amino acid sequences were presented in Example 24 also reacted with the anti-SCM antibody of Example 20. A variation on the ELISA assay of Example 21 was used. In this version of the ELISA assay, the assay was performed directly on the eluate from the RP-HPLC purification step that remained adsorbed to the Eppendorf™ collection tubes after loading of the bulk of the eluates onto the sequenator disk. No other SCM factor was added, and there was no additional sample added to the assay. This version of the SCM ELISA assay is noncompetitive; the larger is the quantity of SCM factor adsorbed to the Eppendorf™ tubes, the higher is the measured A405. The results, shown in Table 15, clearly indicate the presence of material able to react with anti-SCM antibody in these fractions.
(§2) Human cancer cells in culture were directly shown to contain SCM-factor molecules by antibody reactivity. Washed cells from monolayered cultures of several human cancer cells: MCF7 breast cancer cells; T1080 fibrosarcoma cells; A2780 ovarian cancer cells; and HCT80 colon cancer cells, were assayed directly by the noncompetitive ELISA assay procedure of Example 25.

MCF7 breast cancer cells = experiment: as above; format: cell-based, human
Protocol: as §1, §2
As shown in Table 17 of Example 26, treatment of human cultured cancer cells with cycloheximide, an inhibitor of protein synthesis, decreases the amount of SCM factor produced by these cells. […] The amounts of SCM factor per 7×10^6 cells in the presence or absence of 10^-3 molar ascorbic acid after a 16-hour incubation were measured by the noncompetitive ELISA procedure of Example 25. The aliquot of cancer cells incubated in the presence of ascorbate ions produced 43.9% less SCM factor than untreated control cells.

[2] = tested on: SCM-responding lymphocytes; conditions: from prior applications Ser. No. 07/167,007 and 07/163,250; cited from earlier work
[3] = tested on: K 562 human myeloid cell line; experiment: Natural lymphocyte cytotoxicity against K 562 cells (51Cr release); format: cell-based; conditions: for Percent Cytotoxicity: PBL, 35 femtomoles, 2.5 hours 37° C., 40:1; for Percent Cytotoxicity: Treated & Washed Lymphocytes: 35 femtomoles per lymphocyte, effector/target 40:1
Protocol: Aliquots of these lymphocytes were also retained as controls and not incubated. In addition, potentially SCM-responding lymphocytes were obtained from donors having cancer, and treated in the same manner-some aliquots incubated with plasma containing SCM factor and others retained as controls and not incubated.
After incubation the cytotoxicity of the lymphocytes was tested in accordance with the method described in M. R. Potter and M. Moore, "Natural Cytotoxic Reactivity of Human Lymphocyte Subpopulations," Immunology 37, 187-194 (1979). In accordance with this published method cells of the K 562 human myeloid cell line labeled with ^51 Cr were used as target cells for the assay. The potentially SCM-responding lymphocytes were used as the effector cells. The ratio of target cells to effector cells was 1 to 20. […] The percent of cytotoxicity is determined as follows: [formula] where RS is the percent of ^51 Cr release in the sample, RC the percent of ^51 Cr release in the control and RT is the percent of ^51 Cr release in the presence of a detergent, Triton X-100. […] When the incubation was performed with potentially SCM-responding lymphocytes from cancer patients, the decrease in cytotoxicity was smaller, between 40 and 90%. […] The lower level of cytotoxicity present in cells from cancer patients was consistent with a decrease of such cytotoxicity caused by in vivo exposure to factors such as the cancer-associated SCM recognition factor.
The purified synthetic SCM factor molecule and peptides F1-F5, F7, and F8, as described above in Example 16, were investigated to determine their suppressive effect on the natural cytotoxicity of lymphocytes against cancer cells, using the human myeloid cell line K 562 as target as measured by the conventional ^51 Cr release method (Example 13).
In brief, the K 562 target cells grown in suspension in RPMI-FBS culture medium were washed and labeled for 3 hours at 37° C. with 100 μCi sodium [^51 Cr]chromate and then washed 4 times in RPMI growth medium. The effector lymphocytes used were isolated from heparinized peripheral blood of normal healthy donors using either appropriate density solutions to isolate the SCM-responding subpopulation of lymphocytes, as described above under "Isolation of SCM-responding Lymphocytes," or the conventional separation medium Histopaque 1077 for isolation of the total population of peripheral blood lymphocytes (PBL). The effector cell to target cell ratio used in these experiments was 40:1. Control samples contained target cells only and were used to determine background isotope release from the target cells. The test samples contained 0.2 mL aliquots of labeled target cells to which 0.2 mL of effector lymphocytes was added; the effector lymphocytes were either untreated or had been pretreated with either the entire synthetic SCM factor or any of the fragments designated F1 to F5, F7, or F8 for 2.5 hours at 37° C. The tests were carries out in triplicate. Cell suspensions were incubated for 18 hours at 37° C. in an atmosphere of 95% air and 5% CO2. Samples were then centrifuged for 10 minutes at 200 xg. From each test sample tube, a 0.2 mL aliquot of the supernatant was removed. Both the supernatant and the remaining cell pellet were counted in a Beckman gamma counter. The maximum possible isotope release was taken as the count obtained by adding the counts for the supernatant and cell pellets. The percentage of ^51 Cr release was determined for each of the triplicate samples; using the mean value of ^51 Cr release, the percentage of cytotoxicity was calculated according to the equation presented in Table 25.

[4] = cycloheximide 50 μg/10^6 cells, 16 hrs
[5] = experiment with untreated control 46.5 ± 1.5
[6] = experiment with untreated control 72.7 ± 1.2
[7] = experiment with untreated control 80.4 ± 1.0
[8] = experiment with untreated control 71.2 ± 1.5

## Cc1c2oc3c(C)ccc(C(=O)N[C@@H]4C(=O)N[C@H](C(C)C)C(=O)N5CCC[C@H]5C(=O)N(C)CC(=O)N(C)[C@@H](C(C)C)C(=O)O[C@@H]4C)c3nc-2c(C(=O)N[C@@H]2C(=O)N[C@H](C(C)C)C(=O)N3CCC[C@H]3C(=O)N(C)CC(=O)N(C)[C@@H](C(C)C)C(=O)O[C@@H]2C)c(N)c1=O [Actinomycin D, actinomycin D] (I: T[dV]P[Sar][NMeV] / II: T[dV]P[Sar][NMeV]; ester I:1-I:C, II:1-II:C; linker I:N-II:N via Actinocin(9to1))
[1]
  induction of response to synthetic SCM factor in presence of protein synthesis inhibitor: no response to synthetic SCM factor was induced

## C[C@@H]1C[C@@H]([C@H](O)CC2CC(=O)NC(=O)C2)C(=O)[C@@H](C)C1 [Cycloheximide, cycloheximide]
T1080 fibrosarcoma cells; [4]
  Corrected A405 As % of Control: 66.0 % of Control
T1080 fibrosarcoma cells; cycloheximide 50 μg/10^6 cells, 16 hrs, control 1.5060
  Corrected A405 (SCM factor synthesis): 0.9940
T1080 fibrosarcoma cells; cycloheximide treatment
  decrease of concentration of SCM factor associated with the cells: 34%
[1]
  induction of response to synthetic SCM factor in presence of protein synthesis inhibitor: no response to synthetic SCM factor was induced
MCF7 breast cancer cells; cycloheximide 20 μg/10^6 cells, 3 hrs
  Corrected A405 As % of Control: 91.2 % of Control
MCF7 breast cancer cells; cycloheximide 20 μg/10^6 cells, 3 hrs, control 2.0716
  Corrected A405 (SCM factor synthesis): 1.8893
MCF7 breast cancer cells; [4]
  Corrected A405 As % of Control: 74.7 % of Control
MCF7 breast cancer cells; cycloheximide 50 μg/10^6 cells, 16 hrs, control 0.9654
  Corrected A405 (SCM factor synthesis): 0.7217
MCF7 breast cancer cells; cycloheximide treatment
  decrease of concentration of SCM factor associated with the cells: 25.3%

## O=C1O[C@H]([C@@H](O)CO)C(O)=C1O [L-ascorbic acid]
MCF7 breast cancer cells; 1 × 10^-3 M, pH 7.1, 16 hrs at 37° C., 7×10^6 cells, control 1.7448
  Corrected ELISA A405 (SCM factor synthesis): 0.9788
MCF7 breast cancer cells; 10^-3 molar, 16-hour incubation
  less SCM factor produced than untreated control cells: 43.9%
MCF7 breast cancer cells; Homo sapiens, MCF7, 1 × 10^-3 M, pH 7.1, 16 hrs at 37° C., read-out: Corrected ELISA A405 as % of Control
  activity at 1000 µM: 56.1%

## F-S-W-G-A-E-G-Q-R (FSWGAEGQR) [EAE peptide, experimental allergic encephalitogenic peptide]
[2]
  SCM factor activity: has no SCM factor activity; also recorded: completely devoid of SCM activity

## F-W-G-A-E-G-Q-R (FWGAEGQR)
[2]
  SCM factor activity: with SCM-factor activity

## FLMIDQNTK [F4, F-L-M-I-D-Q-N-T-K]
[3]; [5]
  Percent Cytotoxicity: 48.6 ± 1.3%
[3]; [6]
  Percent Cytotoxicity: 76.2 ± 1.3%
[3]; [7]
  Percent Cytotoxicity: 81.0 ± 1.5%

## FLMIDQNTKVPLFMGK [F7]
[3]; [8]
  Percent Cytotoxicity: 72.7 ± 1.0%

## FNKPFVFLMIDQNTK [F3, F-N-K-P-F-V-F-L-M-I-D-Q-N-T-K]
[3]; [6]
  Percent Cytotoxicity: 74.5 ± 1.5%
[3]; [7]
  Percent Cytotoxicity: 80.5 ± 1.0%

## FNKPFVFLMIDQNTKVPLFMGK [F2, FNKPFVFLMIDQNTKVPLFMGK]
[3]; [5]
  Percent Cytotoxicity: 2.4 ± 0.2%
[3]; [6]
  Percent Cytotoxicity: 14.9 ± 1.5%
[3]; [7]
  Percent Cytotoxicity: 2.6 ± 1.7%

## MIPPEVKFNKPFVF [F5, M-I-P-P-E-V-K-F-N-K-P-F-V-F]
[3]; [6]
  Percent Cytotoxicity: 72.7 ± 1.3%
[3]; [7]
  Percent Cytotoxicity: 79.8 ± 0.9%

## MIPPEVKFNKPFVFLMDQNTK [F1, MIPPEVKFNKPFVFLMDQNTK]
[3]; [6]
  Percent Cytotoxicity: 78.5 ± 1.0%
[3]; [7]
  Percent Cytotoxicity: 81.0 ± 1.0%

## MIPPEVKFNKPFVFLMIDQNTKVPLFMGK [Synthetic SCM Factor, MIPPEVKFNKPFVFLMIDQNTKVPLFMGK]
[3]
  dose resulting in a 50% decrease in cytotoxicity: 11.5 femtomoles per lymphocyte
  quantity required for a 50% decrease of the cytotoxic effect: 11.5 femtomoles
[3]; PBL of healthy donors
  Percent Cytotoxicity: Treated & Washed Lymphocytes: 3.0 ± 0.8%
[3]; [5]
  Percent Cytotoxicity: 0.1 ± 0.8%
[3]; [6]
  Percent Cytotoxicity: 3.2 ± 0.1%
[3]; [7]
  Percent Cytotoxicity: 3.1 ± 0.8%
[3]; SCM-R lymphocytes of healthy donors
  Percent Cytotoxicity: Treated & Washed Lymphocytes: 0.1 ± 0.9%

## VPLFMGK [F8]
[3]; experiment with untreated control 31.0 ± 2.0
  Percent Cytotoxicity: 33.0 ± 1.8%
[3]; [8]
  Percent Cytotoxicity: 71.7 ± 1.2%
